Key:
[1] = tested on: colistin resistant MCR (+) E. Coli strains; assay: MIC, broth microdilution, compound alone; type: cell-based; settings: for MIC: compound alone
Summary of the method: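 Wells held ~5×10^5 CFU/mL of bacteria prepared to 0.5 McFarland from overnight TSA colonies and exposed to serially diluted agents, following modified CLSI microdilution. After 24 h at 35 °C, growth judged by turbidity (OD600 possible); 99% inhibition sets the MIC.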

[2] = tested on: ACBA multi-drug resistant strains; assay: MIC against multi-drug resistant strains (Table 5); type: cell-based, Acinetobacter baumannii; settings: alone
Summary of the method: (§1)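 Modified CLSI broth microdilution; inoculum from 18–20 h TSA colonies adjusted to 0.5 McFarland, ~5×10^5 CFU/mL per well. Plates incubated 24 h at 35 °C; turbidity may be read at OD600. MIC defined as concentration giving 99% inhibition.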

[3] = tested on: ENT CLOACAE multi-drug resistant strains; assay: MIC against multi-drug resistant strains (Table 5); type: cell-based, E. cloacae; settings: alone
Summary of the method: as §1

[4] = tested on: 6083655967 [MCR 1+; E.Coli]; assay: Synergistic study between LC100 or LC101 with B2088; type: cell-based; settings: for Combination MIC: strain 6083655967, value of each component
Method: The MICs of the individual drugs and LC compound in combinations were determined using the broth microdilution technique as recommended by the CLSI whereby the two anti-microbial agents were added in an equal amount. (e.g.: 50 μL of Colistin: 50 μL of LC compounds). Diluted media containing compounds and antibiotics will be serially diluted 2-fold, and LC compounds and antibiotics alone or in combination will be assayed at fixed synergy concentration. In all cases, the lowest concentration at which no visible growth occurred was be recorded to be the MIC value of individual and combined antibacterial agents. The results were obtained after 24 hours of incubation.
Using the combination of LC100 and colistin, the activity of a broad range of strains was further tested (Table 7).

various pathogens = assay: organism not typed; type: cell-based
Summary of the method: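 Broth microdilution MIC per CLSI: each agent alone and LC compound plus antibiotic (e.g. colistin) combined in equal amounts, serially diluted 2-fold at fixed synergy concentration.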

[5] = 6093560257 [MCR 1+, E. Coli, NDM-1]
[6] = 7103531927 [MCR 1+, E. Coli, KPC+]
[7] = 7113636863 [MCR 1+, E. Coli, NDM-1]

CCN(CC)CCCCOc1ccc(/C=C/C(=O)c2ccc(OCCCCN(CC)CC)c(CC=C(C)C)c2O)cc1 [LC100]
50 µg/mL: MIC ([2]; strain ACBA 1012) | MIC ([2]; strain ACBA 43357)
✓: Pathogen sensitivity (✓/x), Colistin 0.5 μg+ LC100 1 μg (various pathogens; 6083655967 [MCR 1+, E. Coli]) | Pathogen sensitivity (✓/x), Colistin 0.5 μg+ LC100 2 μg (various pathogens; 6083655967 [MCR 1+, E. Coli]) | Pathogen sensitivity (✓/x), Colistin 1 μg+ LC100 1 μg (various pathogens; 6083655967 [MCR 1+, E. Coli]) | Pathogen sensitivity (✓/x), Colistin 1 μg+ LC100 2 μg (various pathogens; 6083655967 [MCR 1+, E. Coli]) | Pathogen sensitivity (✓/x), Colistin 0.5 μg+ LC100 1 μg (various pathogens; [5]) | Pathogen sensitivity (✓/x), Colistin 0.5 μg+ LC100 2 μg (various pathogens; [5]) | Pathogen sensitivity (✓/x), Colistin 1 μg+ LC100 1 μg (various pathogens; [5]) | Pathogen sensitivity (✓/x), Colistin 1 μg+ LC100 2 μg (various pathogens; [5]) | Pathogen sensitivity (✓/x), Colistin 0.5 μg+ LC100 1 μg (various pathogens; 6123520276 [MCR 1+, E. Coli]) | Pathogen sensitivity (✓/x), Colistin 0.5 μg+ LC100 2 μg (various pathogens; 6123520276 [MCR 1+, E. Coli]) | Pathogen sensitivity (✓/x), Colistin 1 μg+ LC100 1 μg (various pathogens; 6123520276 [MCR 1+, E. Coli]) | Pathogen sensitivity (✓/x), Colistin 1 μg+ LC100 2 μg (various pathogens; 6123520276 [MCR 1+, E. Coli]) | Pathogen sensitivity (✓/x), Colistin 0.5 μg+ LC100 1 μg (various pathogens; 7023436560 [MCR 1+, E. Coli]) | Pathogen sensitivity (✓/x), Colistin 0.5 μg+ LC100 2 μg (various pathogens; 7023436560 [MCR 1+, E. Coli]) | Pathogen sensitivity (✓/x), Colistin 1 μg+ LC100 1 μg (various pathogens; 7023436560 [MCR 1+, E. Coli]) | Pathogen sensitivity (✓/x), Colistin 1 μg+ LC100 2 μg (various pathogens; 7023436560 [MCR 1+, E. Coli]) | Pathogen sensitivity (✓/x), Colistin 0.5 μg+ LC100 1 μg (various pathogens; 7023444207 [MCR 1+, E. Coli]) | Pathogen sensitivity (✓/x), Colistin 0.5 μg+ LC100 2 μg (various pathogens; 7023444207 [MCR 1+, E. Coli]) | Pathogen sensitivity (✓/x), Colistin 1 μg+ LC100 1 μg (various pathogens; 7023444207 [MCR 1+, E. Coli]) | Pathogen sensitivity (✓/x), Colistin 1 μg+ LC100 2 μg (various pathogens; 7023444207 [MCR 1+, E. Coli]) | Pathogen sensitivity (✓/x), Colistin 0.5 μg+ LC100 1 μg (various pathogens; 7023446108 [MCR 1−, E. Coli]) | Pathogen sensitivity (✓/x), Colistin 0.5 μg+ LC100 2 μg (various pathogens; 7023446108 [MCR 1−, E. Coli]) | Pathogen sensitivity (✓/x), Colistin 1 μg+ LC100 1 μg (various pathogens; 7023446108 [MCR 1−, E. Coli]) | Pathogen sensitivity (✓/x), Colistin 1 μg+ LC100 2 μg (various pathogens; 7023446108 [MCR 1−, E. Coli]) | Pathogen sensitivity (✓/x), Colistin 0.5 μg+ LC100 1 μg (various pathogens; 7033607097 [MCR 1−, E. Coli]) | Pathogen sensitivity (✓/x), Colistin 0.5 μg+ LC100 2 μg (various pathogens; 7033607097 [MCR 1−, E. Coli]) | Pathogen sensitivity (✓/x), Colistin 1 μg+ LC100 1 μg (various pathogens; 7033607097 [MCR 1−, E. Coli]) | Pathogen sensitivity (✓/x), Colistin 1 μg+ LC100 2 μg (various pathogens; 7033607097 [MCR 1−, E. Coli]) | Pathogen sensitivity (✓/x), Colistin 0.5 μg+ LC100 1 μg (various pathogens; [6]) | Pathogen sensitivity (✓/x), Colistin 0.5 μg+ LC100 2 μg (various pathogens; [6]) | Pathogen sensitivity (✓/x), Colistin 1 μg+ LC100 1 μg (various pathogens; [6]) | Pathogen sensitivity (✓/x), Colistin 1 μg+ LC100 2 μg (various pathogens; [6]) | Pathogen sensitivity (✓/x), Colistin 0.5 μg+ LC100 1 μg (various pathogens; [7]) | Pathogen sensitivity (✓/x), Colistin 0.5 μg+ LC100 2 μg (various pathogens; [7]) | Pathogen sensitivity (✓/x), Colistin 1 μg+ LC100 1 μg (various pathogens; [7]) | Pathogen sensitivity (✓/x), Colistin 1 μg+ LC100 2 μg (various pathogens; [7]) | Pathogen sensitivity (✓/x), Colistin 0.5 μg+ LC100 1 μg (various pathogens; KLPN ATCC 10031) | Pathogen sensitivity (✓/x), Colistin 0.5 μg+ LC100 1 μg (various pathogens; KLPN CRE 15588) | Pathogen sensitivity (✓/x), Colistin 1 μg+ LC100 1 μg (various pathogens; KLPN CRE 15588) | Pathogen sensitivity (✓/x), Colistin 0.5 μg+ LC100 1 μg (various pathogens; KLPN CRE 16260) | Pathogen sensitivity (✓/x), Colistin 0.5 μg+ LC100 2 μg (various pathogens; KLPN CRE 16260) | Pathogen sensitivity (✓/x), Colistin 0.5 μg+ LC100 5 μg (various pathogens; KLPN CRE 16260) | Pathogen sensitivity (✓/x), Colistin 1 μg+ LC100 1 μg (various pathogens; KLPN CRE 16260) | Pathogen sensitivity (✓/x), Colistin 1 μg+ LC100 2 μg (various pathogens; KLPN CRE 16260) | Pathogen sensitivity (✓/x), Colistin 1 μg+ LC100 5 μg (various pathogens; KLPN CRE 16260) | Pathogen sensitivity (✓/x), Colistin 0.5 μg+ LC100 1 μg (various pathogens; PAE ATCC 15442) | Pathogen sensitivity (✓/x), Colistin 0.5 μg+ LC100 2 μg (various pathogens; PAE ATCC 15442) | Pathogen sensitivity (✓/x), Colistin 1 μg+ LC100 1 μg (various pathogens; PAE ATCC 15442) | Pathogen sensitivity (✓/x), Colistin 0.5 μg+ LC100 1 μg (various pathogens; PAE ATCC BAA-1744) | Pathogen sensitivity (✓/x), Colistin 0.5 μg+ LC100 2 μg (various pathogens; PAE ATCC BAA-1744) | Pathogen sensitivity (✓/x), Colistin 0.5 μg+ LC100 1 μg (various pathogens; PAE DM 4150) | Pathogen sensitivity (✓/x), Colistin 0.5 μg+ LC100 2 μg (various pathogens; PAE DM 4150) | Pathogen sensitivity (✓/x), Colistin 0.5 μg+ LC100 5 μg (various pathogens; PAE DM 4150) | Pathogen sensitivity (✓/x), Colistin 0.5 μg+ LC100 1 μg (various pathogens; PAE DM 23155) | Pathogen sensitivity (✓/x), Colistin 0.5 μg+ LC100 2 μg (various pathogens; PAE DM 23155) | Pathogen sensitivity (✓/x), Colistin 1 μg+ LC100 1 μg (various pathogens; PAE DM 23155) | Pathogen sensitivity (✓/x), Colistin 1 μg+ LC100 2 μg (various pathogens; PAE DM 23155) | Pathogen sensitivity (✓/x), Colistin 0.5 μg+ LC100 1 μg (various pathogens; PAE DM 23257) | Pathogen sensitivity (✓/x), Colistin 0.5 μg+ LC100 2 μg (various pathogens; PAE DM 23257) | Pathogen sensitivity (✓/x), Colistin 0.5 μg+ LC100 5 μg (various pathogens; PAE DM 23257) | Pathogen sensitivity (✓/x), Colistin 1 μg+ LC100 1 μg (various pathogens; PAE DM 23257) | Pathogen sensitivity (✓/x), Colistin 0.5 μg+ LC100 1 μg (various pathogens; PAE DM 23376) | Pathogen sensitivity (✓/x), Colistin 0.5 μg+ LC100 2 μg (various pathogens; PAE DM 23376) | Pathogen sensitivity (✓/x), Colistin 0.5 μg+ LC100 1 μg (various pathogens; PAE DR 5790) | Pathogen sensitivity (✓/x), Colistin 0.5 μg+ LC100 1 μg (various pathogens; PAE DU 14476) | Pathogen sensitivity (✓/x), Colistin 0.5 μg+ LC100 2 μg (various pathogens; PAE DU 14476) | Pathogen sensitivity (✓/x), Colistin 0.5 μg+ LC100 5 μg (various pathogens; PAE DU 14476) | Pathogen sensitivity (✓/x), Colistin 1 μg+ LC100 1 μg (various pathogens; PAE DU 14476)
1 µg/mL: Combination MIC ([4]; combination B2088 + LC 100) | level of synergistic effect with B2088 ([4]; killing E. coli with the mcr-1 mutation)
2 µg/mL: Combination MIC ([4]; combination B2088 (Ac) + LC 100)
no activity: antimicrobial activity when used alone ([1]; colistin resistant bacteria, in words)
100 µg/mL: MIC ([1]; strain 6075066346, MCR (+)) | MIC ([1]; strain 6083655967, MCR (+)) | MIC ([1]; strain 6103645107, MCR (+)) | MIC ([1]; strain 6123520276, MCR (+)) | MIC ([1]; strain 7013177695, MCR (+)) | MIC ([1]; strain 7023436560, MCR (+)) | MIC ([1]; strain 7028444207 (Table 1b), MCR (+))
>50 µg/mL: MIC ([2]; strain ACBA ATCC 19606) | MIC ([3]; strain ENT CLOACAE 6780) | MIC ([3]; strain ENT CLOACAE 21489) | MIC ([3]; strain ENT CLOACAE 30063) | MIC ([3]; strain ENT CLOACAE 44095)
25 µg/mL: MIC ([2]; strain ACBA 1010)

— patent US12473250B2, “Molecular design of new antibiotics and antibiotic adjuvants against MCR strains” (priority 2019, dated 2025)
